Consider 15 molecules from patent US20240287042A1, “NOVEL COMPOUND HAVING INHIBITORY ACTIVITY AGAINST PENDRIN, AND PHARMACEUTICAL USES THEREOF” (UIF (University Industry Foundation), Yonsei University, priority 2021, published 2024).

The target in the experiment is T1, human wild-type (WT)-pendrin (Homo sapiens, UniProt O43511).
T1 construct: expressed in transfected cells
T1 sequence (O43511 1-780): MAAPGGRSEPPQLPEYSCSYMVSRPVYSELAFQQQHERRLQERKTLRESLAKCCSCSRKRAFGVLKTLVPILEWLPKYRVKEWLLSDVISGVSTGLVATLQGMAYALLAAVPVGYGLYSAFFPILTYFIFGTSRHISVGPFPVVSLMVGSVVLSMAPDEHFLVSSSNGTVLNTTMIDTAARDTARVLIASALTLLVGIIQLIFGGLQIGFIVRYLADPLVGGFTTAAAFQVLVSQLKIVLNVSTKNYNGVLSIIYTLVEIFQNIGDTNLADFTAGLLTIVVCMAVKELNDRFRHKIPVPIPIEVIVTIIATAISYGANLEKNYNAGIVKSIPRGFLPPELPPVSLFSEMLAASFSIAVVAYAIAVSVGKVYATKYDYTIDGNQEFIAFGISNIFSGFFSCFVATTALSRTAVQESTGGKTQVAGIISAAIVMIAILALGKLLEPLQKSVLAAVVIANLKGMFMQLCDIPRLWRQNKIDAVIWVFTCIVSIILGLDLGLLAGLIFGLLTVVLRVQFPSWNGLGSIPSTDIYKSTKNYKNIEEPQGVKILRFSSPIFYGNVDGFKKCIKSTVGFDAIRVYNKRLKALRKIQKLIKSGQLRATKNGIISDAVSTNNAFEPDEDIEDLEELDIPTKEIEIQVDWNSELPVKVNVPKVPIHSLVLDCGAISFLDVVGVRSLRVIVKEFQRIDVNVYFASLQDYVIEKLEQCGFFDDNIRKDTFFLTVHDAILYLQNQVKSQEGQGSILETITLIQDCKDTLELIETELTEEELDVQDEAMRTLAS
Description: Pendrin Cl−/I− exchange inhibitory activity, YFP fluorescence in CHO-K1 cells. In kind it is cell-based. The conditions noted are these: CHO-K1; for inhibition at 1 µM: compound concentration 1 μM; for inhibition at 3 µM: compound concentration 3 μM; for inhibition at 10 µM: compound concentration 10 μM; for inhibition at 30 µM: compound concentration 30 μM; for inhibition at 100 µM: compound concentration 100 μM. On the procedure:
Chinese hamster ovary (CHO)-K1 cells were cultured in DMEM medium containing 10% fetal bovine serum (FBS), 100 units/ml of penicillin and 100 μg/ml streptomycin. CHO-K1 cells were stably transfected with pcDNA3.1 encoding the halide sensor YFP-H148Q/I152L/F46L and human wild-type (WT)-pendrin.
(§1) CHO-K1 cells expressing human WT pendrin and YFP-F46L/H148Q/I152L were plated in 96-well microplates at a density of 2×10^4 cells per well, and cultured for 48 hours. Each well of the cell cultured 96-well plate was washed 2 times with 200 μL of PBS, and filled with 50 μL of HEPES buffered solution (140 mM NaCl, 5 mM KCl, 1 mM MgCl2, 1 mM CaCl2), 10 mM glucose and 10 mM HEPES (pH 7.4)). Test compounds (1 μL) were added to a final concentration of 1, 3, 10, 30 and 100 μM. After culturing at 37° C. for 10 minutes, the 96-well plate was located on the FLUOstar Omega Microplate Reader (BMG Labtech, Ortenberg, Germany) for a fluorescence assay. Fluorescence was recorded continuously (400 ms per point) for 1 second (baseline), whereby each well was assayed individually for pendrin-mediated I-influx. Then 50 μL of Na-substituted HEPES buffered solution (replacing NaCl with NaI) was added using a liquid injector at 1 second, and YFP fluorescence was recorded for 5 seconds. The initial iodide influx rate was determined from the initial slope of fluorescence by nonlinear regression, after the injection of iodide.
as §1, with “Chinese hamster ovary (CHO)-K1 cells were cultured in DMEM medium containing 10% fetal bovine serum (FBS), 100 units/ml of penicillin and 100 μg/ml streptomycin. CHO-K1 cells were stably transfected with pcDNA3.1 encoding the halide sensor YFP-H148Q/I152L/F46L and human wild-type (WT)-pendrin. 3-2: Assay of Cl^−/I^− exchange activity CHO-K1” for “CHO-K1”, “50” for “1, 3, 10, 30 and 100”, “Then,” for “Then”, “NaI-substituted” for “Na-substituted”

Bounds are passed on as bounds.

As to `O=C(O)c1[nH]c2ccc(Cl)cc2c1CC(=O)N1CCN(c2ccc(F)cc2F)CC1` [YPI-A4915, 5-Chloro-3-(2-(4-(2,4-difluorophenyl)piperazin-1-yl)-2-oxoethyl)-1H-indole-2-carboxylic acid], the inhibition (as a rule, the change of the read-out against control, counted positive when it falls) at 1 µM was < 20%; the inhibition at 3 µM is < 20%; the inhibition at 10 µM is < 20%; 30 µM produced 65.2% inhibition. The molecule also gave an inhibition at 100 µM of 93.3%.

The molecule `Cc1ccc2[nH]c(C(=O)O)c(CC(=O)N3CCN(c4c(C)cccc4C)CC3)c2c1` [YPI-A4946, 3-(2-(4-(2,6-Dimethylphenyl)piperazin-1-yl)-2-oxoethyl)-5-methyl-1H-indole-2-carboxylic acid] showed an inhibition at 1 µM of 22.4%, an inhibition at 3 µM of 56.9%, an inhibition at 10 µM of 82.3% and an inhibition at 30 µM of 94.5%. The molecule also registered an inhibition at 100 µM of 95.6%.

In turn, `Cc1cccc(C)c1N1CCN(C(=O)Cc2c(C(=O)O)[nH]c3ccc(Cl)cc23)CC1` [YPI-A4783, 5-Chloro-3-(2-(4-(2,6-dimethylphenyl)piperazin-1-yl)-2-oxoethyl)-1H-indole-2-carboxylic acid] displayed an inhibition at 1 µM of 39.9%, an inhibition at 3 µM of 74.5%, an inhibition at 10 µM of 100% and an inhibition at 30 µM of 100%. In addition, the inhibition at 100 µM is 100%.

For the molecule `O=C(O)c1[nH]c2ccc(Cl)cc2c1CC(=O)N1CCN(c2ccccc2Br)CC1` [YPI-A4844, 3-(2-(4-(2-Bromophenyl)piperazin-1-yl)-2-oxoethyl)-5-chloro-1H-indole-2-carboxylic acid], the inhibition at 1 µM was < 20%, the inhibition at 3 µM is < 20%, the inhibition at 10 µM worked out at 59.7% and the inhibition at 30 µM was 92.5%.

On to `C[C@@H]1CN(c2ccccc2)CCN1C(=O)Cc1c(C(=O)O)[nH]c2ccc(Cl)cc12` [YPI-A4914, (R)-5-chloro-3-(2-(2-methyl-4-phenylpiperazin-1-yl)-2-oxoethyl)-1H-indole-2-carboxylic acid], for which the inhibition at 1 µM is < 20%, the inhibition at 3 µM is < 20%, the inhibition at 10 µM was < 20% and the inhibition at 30 µM is < 20%. Besides, 100 µM produced 68.2% inhibition.

`O=C(O)c1[nH]c2ccc(Cl)cc2c1CC(=O)N1CCN(c2ccccc2F)CC1` [YPI-A4917, 5-Chloro-3-(2-(4-(2-fluorophenyl)piperazin-1-yl)-2-oxoethyl)-1H-indole-2-carboxylic acid]: the inhibition at 1 µM was < 20%, the inhibition at 3 µM is < 20%, the inhibition at 10 µM was < 20% and the inhibition at 30 µM was < 20%. For the same molecule, the inhibition at 100 µM turned out to be 78.3%.

With `O=C(O)c1[nH]c2ccc(Cl)cc2c1CC(=O)N1CCN(c2ccccc2Cl)CC1` [YPI-A4803, 5-Chloro-3-(2-(4-(2-chlorophenyl)piperazin-1-yl)-2-oxoethyl)-1H-indole-2-carboxylic acid], the inhibition at 1 µM was < 20%, the inhibition at 3 µM is < 20%, the inhibition at 10 µM is 39.4% and 30 µM produced 73.9% inhibition. The molecule further yielded an inhibition at 100 µM of 95.7%.

As to `CC(C)(C)c1ccc(N2CCN(C(=O)Cc3c(C(=O)O)[nH]c4ccc(Cl)cc34)CC2)cc1` [YPI-A4943, 3-(2-(4-(4-(Tert-butyl)phenyl)piperazin-1-yl)-2-oxoethyl)-5-chloro-1H-indole-2-carboxylic acid], the inhibition at 1 µM was < 20%, the inhibition at 3 µM came to 34.1%, 10 µM produced 70.8% inhibition and the inhibition at 30 µM is 81.9%. Moreover, 100 µM produced 91.5% inhibition.

As to `O=C(O)c1[nH]c2ccc(Cl)cc2c1CC(=O)N1CCN(c2ccccc2)CC1` [YPI-A4881, 5-Chloro-3-(2-oxo-2-(4-phenylpiperazin-1-yl)ethyl)-1H-indole-2-carboxylic acid], the inhibition at 1 µM is < 20%, the inhibition at 3 µM is < 20%, the inhibition at 10 µM is < 20% and the inhibition at 30 µM was < 20%. In addition, the inhibition at 100 µM was 40.2%.

For `O=C(O)c1[nH]c2ccc(Cl)cc2c1CC(=O)N1CCN(c2ccc(Cl)cc2)CC1` [YPI-A4843, 5-Chloro-3-(2-(4-(4-chlorophenyl)piperazin-1-yl)-2-oxoethyl)-1H-indole-2-carboxylic acid], the inhibition at 1 µM was < 20%, the inhibition at 3 µM is < 20%, testing at 10 µM gave an inhibition of 40.3% and the inhibition at 30 µM was determined as 91.4%. Further, testing at 100 µM gave an inhibition of 92.1%.

For `Cc1ccc(N2CCN(C(=O)Cc3c(C(=O)O)[nH]c4ccc(Cl)cc34)CC2)cc1` [YPI-A4849, 5-Chloro-3-(2-oxo-2-(4-(p-tolyl)piperazin-1-yl)ethyl)-1H-indole-2-carboxylic acid], the inhibition at 1 µM was < 20%, the inhibition at 3 µM is < 20%, 10 µM produced 36.8% inhibition and testing at 30 µM gave an inhibition of 90.9%. Besides, the inhibition at 100 µM is 92.3%.

Turning to `O=C(O)c1[nH]c2ccc(Cl)cc2c1CC(=O)N1CCN(c2ccc(Br)cc2)CC1` [YPI-A4846, 3-(2-(4-(4-Bromophenyl)piperazin-1-yl)-2-oxoethyl)-5-chloro-1H-indole-2-carboxylic acid], the inhibition at 1 µM was < 20%, the inhibition at 3 µM was < 20%, the inhibition at 10 µM came out at 73.3% and the inhibition at 30 µM came to 94.7%.

Consider `CCOc1ccccc1N1CCN(C(=O)Cc2c(C(=O)O)[nH]c3ccc(Cl)cc23)CC1` [YPI-A4882, 5-Chloro-3-(2-(4-(2-ethoxyphenyl)piperazin-1-yl)-2-oxoethyl)-1H-indole-2-carboxylic acid], for which the inhibition at 1 µM was < 20%, the inhibition at 3 µM is < 20%, the inhibition at 10 µM was < 20% and the inhibition at 30 µM is < 20%. In addition, the inhibition at 100 µM was 45.3%.

With `COc1ccccc1N1CCN(C(=O)Cc2c(C(=O)O)[nH]c3ccc(Cl)cc23)CC1` [YPI-A4876, 5-Chloro-3-(2-(4-(2-methoxyphenyl)piperazin-1-yl)-2-oxoethyl)-1H-indole-2-carboxylic acid], the inhibition at 1 µM was < 20%, the inhibition at 3 µM is < 20%, the inhibition at 10 µM is < 20% and the inhibition at 30 µM is < 20%. Moreover, the inhibition at 100 µM amounted to 56.8%.

With `COc1cccc(N2CCN(C(=O)Cc3c(C(=O)O)[nH]c4ccc(Cl)cc34)CC2)c1` [YPI-A4877, 5-Chloro-3-(2-(4-(3-methoxyphenyl)piperazin-1-yl)-2-oxoethyl)-1H-indole-2-carboxylic acid], the inhibition at 1 µM was < 20%, the inhibition at 3 µM is < 20%, the inhibition at 10 µM is < 20% and the inhibition at 30 µM is < 20%. The same molecule yielded an inhibition at 100 µM of 67.5%.
